How the values were obtained:
[1] = system: MCF-7 (breast cancer cell); experiment: Measurement of cellular proliferation, MCF-7 cells; assay type: cell-based; conditions: MCF-7, 48 hours
Protocol: (§1) Measurement of cellular proliferation: LNCaP cells at 2.5×10^4/well or PC3 cells at 5×10^4/well, both in a final volume of 100 μl, were plated in triplicate in standard flat bottom 96 well tissue culture plates in the presence of drug or vehicle (DMSO). Unless otherwise indicated, cells were grown for 48 hours at 37° C. in a CO2 incubator. Relative cell growth was determined with the CellTiter 96 aqueous cell proliferation assay (Promega, Madison, Wis.) as described by the manufacturer using an automated plate reader. Results were calculated in a blinded fashion and are means of triplicate determinations.
(§2) For the 48 hour proliferation, cells were cultured with calcium channel antagonists or without calcium channel antagonists. The IC50 values of the calcium channel antagonists were determined.
(§3) Using the measurement cell proliferation assay described hereinabove, the cell lines Jurkat, LNCap (prostate cancer cell), PC-31 (prostate cancer cell), DU145 (prostate cancer cell), MDA-468 (breast cancer cell), MDA-36 (Breast cancer cell), MCF-7 (breast cancer cell), MIA PaCa-2 (pancreatic cancer cell), Hep G2 (liver cancer cell), A549 (non-small cell lung cancer cells), NCI H460 (non-small cell lung cancer cells), HT-29 (colon cancer cell), HCT-116 (colon cancer cell) and SK OV-3 (ovarian cancer cell) were cultured in the presence of TH-1177, TH-1205, TH-1201, TH-2109, TH-2029, TH-2043, TN-2085 and TH-2279.

Ca2+ entry in PC3 cells = experiment: Measurement of intracellular Ca2+ concentration (Ca2+ entry), PC3 cells; assay type: cell-based, human
Protocol: Cells were incubated in growth media containing 1 μM of the acetoxy-methyl ester of the Ca^2+-sensitive fluorescent dye indo-1 (indo-1/AM, Molecular Probes, Eugene, Oreg.) for 1 hour at 37° C. Cells were washed three times in buffer A (10 mM HEPES, pH 7.4, 1 mM MgCl2, 3 mM KCl, 1 mM CaCl2, 140 mM NaCl, 0.1% glucose, 1% fetal bovine serum) and suspended to a final concentration of 10^6/ml. Prior to stimulation, cells were warmed to 37° C. Prior to stimulation, cells were also incubated with drug, calcium channel antagonists and the IC50 values were determined. Changes in [Ca^2+] were monitored in an SLM 8100C spectrofluorometer (SLM/Aminco, Urbana, Ill.) using previously published methods, Haverstick, et al. (1998) Cell Calcium, 23: 361-368; Densmore, et al. (1996) Am. J. Physiol., 271:C1494-1503, incorporated herein by reference.
Calcium influx into the cell is suitably stimulated using either (1) a physiological ligand or (2) an endoplasmic reticulum (ER) ATPase inhibitor. Preferably, a physiological ligand is used to stimulate calcium influx into the cell.
Ir. the experiment depicted in FIG. 4A, TH-1177 was added before the cells were stimulated with ATP. […] By 70 s after ATP addition, release of Ca^2+ from the internal storage pool was largely over (for example, see FIG. 5 below) and the maintenance of elevations of [Ca^2+]i over baseline was dependent on Ca entry from the extracellular compartment. […] Therefore, TH-1177 interacts with the Ca^2+ influx pathway.
The efficiency of TH-1177 at blocking Ca^2+ entry was assessed by comparison to the effect of chelation of extracellular Ca^2+ with EGTA, which was considered 100% inhibition of Ca^2+ entry.
The data presented above provide that TH-1177 inhibited the stimulated increase in [Ca^2+]i by blockage of Ca^2+ entry. […] This increase represented release of Ca^2+ from the internal storage pool. Addition of TH-1177 had no effect on the size of this change in [Ca^2+]i. […]

PC3 cells = experiment: Survival of SCID mice inoculated with PC3 cells; assay type: in vivo
Protocol: Animal Studies: All protocols were approved by the Animal Care Committee of the University of Virginia. SCID mice were housed in a barrier isolation facility of the University of Virginia Department of Comparative Medicine and all personnel observed sterile techniques when entering the facility and handling animals. TH-1177 was dissolved in ethanol and diluted 10-fold in sterile phosphate buffered saline (PBS) immediately prior to each day's injection. Injection volumes of 0.5 ml per animal were used. Vehicle consisted of PBS diluted ethanol. PC3 cells for injection were prepared by washing in sterile PBS three times prior to suspension to 2×10^6 per ml. Each animal received a daily IP injection of vehicle or drug beginning on day 1.
Statistical methods: In vivo survival data were analyzed with Prism 2.01 (GraphPad Software, San Diego, Calif.). The results of the Kaplan-Meier analysis are presented as one-tailed probabilities because there was no reasonable expectation that drug treatment would cause the mice to succumb more rapidly to the implanted cancer than would control animals.
TH-1177 slowed prostate cancer progression in vivo. […] One day later, daily IP injections of TH-1177 or vehicle alone were begun. TH1177 was administered at doses or either 3 mg/kg or 10 mg/kg. […]

[2] = system: LNCaP prostate cancer cells; experiment: Measurement of cellular proliferation, LNCaP cells; assay type: cell-based, human
Protocol: as §1, §2, §3

[3] = system: MIA PaCa-2 (pancreatic cancer cell); experiment: Measurement of cellular proliferation, MIA PaCa-2 cells; assay type: cell-based; conditions: MIA PaCa-2, 48 hours
Protocol: as §1, §2, §3

**Q.** How did the IC50 [1] turn out when `COc1ccc(CCN2CCC[C@H]2COC(c2ccccc2)c2ccc(Cl)cc2)cc1` (stereo partly shown) [TH-1177] was run?
**A.** 21 µM

**Q.** What about the IC50 (Ca2+ entry in PC3 cells; EGTA chelation of extracellular Ca2+ considered 100% inhibition, read-out: IC50 for blocking Ca2+ entry, PC3 cells) of the same molecule?
**A.** 16 µM

**Q.** What about the “Effect on increase in [Ca2+]i stimulated by ATP” value (Ca2+ entry in PC3 cells; PC3, 1 mM ATP, drug added before) of the same molecule?
**A.** concentration dependent inhibition

**Q.** What about the “Effect on release of Ca2+ from the internal storage pool” value (Ca2+ entry in PC3 cells; PC3, EGTA in medium, 1 mM ATP) of the same molecule?
**A.** no effect

**Q.** And the Life span increase (PC3 cells; 3 mg/kg/d daily IP, p=0.047)?
**A.** 34%

**Q.** And the Life span increase (PC3 cells; 10 mg/kg/d daily IP, p=0.0044)?
**A.** 38%

**Q.** And the IC50 ([2]; FIG. 6A, 48 hours, read-out: IC50 for inhibition of LNCaP proliferation)?
**A.** 4 µM

**Q.** And the “Cell growth in presence of compound” value ([2]; LNCaP, 1 μM or 3 μM, FIG. 7, growth resumed after removal)?
**A.** growth was stopped

**Q.** What about the “Effect of prior treatment on response to second exposure” value ([2]; LNCaP, FIG. 8) of the same molecule?
**A.** no effect

**Q.** And the IC50 [3]?
**A.** 17 µM

From patent publication US6946475B1, “Anticancer calcium channel blockers” (University of Virginia Patent Foundation, priority 1999, dated 2005)
